In series [1] the target is T1, human AChE (hAChE), recombinant acetylcholinesterase (Homo sapiens, UniProt P22303).
T1 construct: made in house
Nature of the series: hAChE inhibition, modified Ellman's method. Format: biochemical. Particulars: for SI (selectivity index for hAChE): ratio IC50(hBChE)/IC50(hAChE). The protocol: Three series of tacrine-squaramide homodimers were tested for their inhibitory potential against human AChE (hAChE) and human BChE (hBChE) enzymes using modified spectrophotometric method of Ellman et al.. THA, 6-Cl-THA and 7-MEOTA were used as reference compounds. […].
(§1) Human plasmatic butyrylcholinesterase (BChE; EC 3.1.1.8) and recombinant acetylcholinesterase (AChE; 3.1.1.7) were prepared at the Department of Toxicology and Military Pharmacy. 5,5′-dithiobis(2-nitrobenzoic acid) (Ellman’s reagent, DTNB), phosphate buffer (PB, pH 7.4), acetylthiocholine (ATC) and butyrylthiocholine (BTC), were purchased from Sigma-Aldrich, Prague, Czech Republic. For measuring purposes – polystyrene Nunc 96-well microplates with flat bottom shape (ThermoFisher Scientific, USA) were utilized.
(§2) All the assays were carried out in 0.1 M KH2PO4/K2HPO4 buffer, pH 7.4. Enzyme solutions were prepared at 2.0 units/mL in 2 mL aliquots. The assay medium (100 µL) consisted of 40 µL of 0.1 M phosphate buffer (pH 7.4), 20 µL of 0.01 M DTNB, 10 µL of the enzyme, and 20 µL of 0.01 M substrate (ATC/BTC iodide solution).
(§3) Tested compounds were preincubated for 5 min. The reaction was started by immediate addition of 20 µL of the substrate. The activity was determined by measuring the increase in absorbance at 412 for AChE/BChE at 37 °C at 2 min intervals - using a Multi-mode microplate reader Synergy 2 (Winooski, VT, USA). Each concentration was assayed in triplicate. Software GraphPad Prizm 5 (San Diego, CA, USA) was used for the statistical data evaluation.
A general note: Ellman's reagent forms a yellow product with free thiols.

For series [2], the target named is human BChE (hBChE), human plasmatic butyrylcholinesterase (Homo sapiens, UniProt P06276). Description: hBChE inhibition, modified Ellman's method. Format: biochemical. Particulars: mean of at least three experiments; read-out: IC50 hBChE. On the procedure: Three series of tacrine-squaramide homodimers were tested for their inhibitory potential against human AChE (hAChE) and human BChE (hBChE) enzymes using modified spectrophotometric method of Ellman et al.. THA, 6-Cl-THA and 7-MEOTA were used as reference compounds.
as §1, §2, §3

A short description of a further series: in vitro. As to conditions: human. The protocol: The human origin cell line HepG2 (ATCC, Mannassas, VA, USA) isolated from liver hepatocellular carcinoma was used to evaluate cytotoxicity of tested compounds. The cells were cultivated in Dublecco’s modified Eagle’s medium (DMEM; Biosera, Nuaille, France) supplemented with 10% fetal bovine serum (Biosera) and 1% penicillin-streptomycin antibiotic solution (Sigma-Aldrich, St. Louis, MO, USA), incubated at 37 °C in a CO2 incubator (Binder CO2 incubator BC 160, Tuttlingen, Germany) and routinely passaged by trypsinization at 75–85% confluence.
The final concentration of DMSO was less than 0.25% per well.
After 24-h incubation, the medium containing serially diluted substances was aspirated from each well and replaced by 100 µL of fresh medium containing MTT (0.5 mg/mL). Plates were subsequently incubated at 37 °C in CO2 incubator for 45 min. The medium containing MTT was then aspirated and formazan dissolved in 100 μL of DMSO. The optical density of each well was measured using Synergy 2 Multi-Mode Microplate Reader (BioTek Instruments, Inc., Winooski, VT, USA) at 570 nm. The cell viability was expressed as the percentage of untreated control. Each experiment was performed in triplicate and repeated three independent times.
The IC50 values were expressed as a mean ± standard error of the mean (SEM).

For series [3] the following is noted: for Pe: PAMPA, PBS pH 7.4; for CNS (+/−) predicted BBB permeation: class from Pe. An excerpt:
An important feature for drugs targeting the brain is their ability to cross the BBB. The parallel artificial membrane permeability assay (PAMPA) is a high-throughput screening tool applicable for prediction of passive transport across BBB [57]. […] These include mainly (i) the different composition of the human phospholipid bilayer may cause deviation in predicted permeability, (ii) omitting the absorption of compounds that are actively transported by influx transporters and pumped-out by various efflux mechanisms with the glycoprotein P at the forefront or (iii) transport through the paracellular route which is mostly exploited by small […] molecules. Even considering these drawbacks, PAMPA-BBB is conceived as very simple but powerful tool for BBB prediction.
PAMPA (the parallel artificial membrane permeability assay) is a high-throughput screening tool applicable for prediction of the passive transport of potential drugs across the blood-brain barrier (BBB). In this study, it has been used as a non-cell-based in vitro assay carried out in a coated 96-well membrane filter. The filter membrane of the donor plate was coated with PBL (Polar Brain Lipid, Avanti, USA) in dodecane (4 µl of 20 mg/mL PBL in dodecane) and the acceptor well was filled with 300 µl of phosphate buffer saline, (PBS pH 7.4; VA). The tested compounds were dissolved first in DMSO and then diluted with PBS pH 7.4 to reach the final concentrations 50–500 µM in the donor well. […] In principle, test compound diffuse from the donor well through the polar brain lipid membrane (area = 0.28 cm^2) to the acceptor well. The concentration of the tested compound in both donor and the acceptor wells were assessed after 3, 4, 5 and 6 h of incubation in quadruplicate using the UV plate reader Synergy HT (Biotek, USA) at the maximum absorption wavelength of each compound (n = 3). Besides that, the solution of theoretical compound concentration, simulating the equilibrium state, established if the membrane was ideally permeable was prepared and assessed as well.

Bounds are passed on as bounds.

T1 sequence (P22303 32-614): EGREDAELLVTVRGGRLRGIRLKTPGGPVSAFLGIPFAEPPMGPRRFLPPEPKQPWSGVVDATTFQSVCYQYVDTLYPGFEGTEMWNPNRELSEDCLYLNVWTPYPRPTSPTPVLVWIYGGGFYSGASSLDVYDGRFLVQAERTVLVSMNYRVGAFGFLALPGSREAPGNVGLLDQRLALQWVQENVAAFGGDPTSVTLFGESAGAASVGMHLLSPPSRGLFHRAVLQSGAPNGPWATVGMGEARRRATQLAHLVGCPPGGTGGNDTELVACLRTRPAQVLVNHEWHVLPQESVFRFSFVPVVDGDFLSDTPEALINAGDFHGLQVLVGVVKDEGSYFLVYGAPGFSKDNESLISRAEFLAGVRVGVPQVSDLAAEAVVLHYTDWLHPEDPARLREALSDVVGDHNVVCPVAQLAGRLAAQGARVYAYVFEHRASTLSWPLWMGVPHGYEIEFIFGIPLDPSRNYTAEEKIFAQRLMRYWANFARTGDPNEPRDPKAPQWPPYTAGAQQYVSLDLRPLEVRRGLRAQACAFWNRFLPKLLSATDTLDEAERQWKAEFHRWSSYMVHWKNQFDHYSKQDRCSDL
Sequence of human BChE (hBChE), human plasmatic butyrylcholinesterase (P06276 29-602): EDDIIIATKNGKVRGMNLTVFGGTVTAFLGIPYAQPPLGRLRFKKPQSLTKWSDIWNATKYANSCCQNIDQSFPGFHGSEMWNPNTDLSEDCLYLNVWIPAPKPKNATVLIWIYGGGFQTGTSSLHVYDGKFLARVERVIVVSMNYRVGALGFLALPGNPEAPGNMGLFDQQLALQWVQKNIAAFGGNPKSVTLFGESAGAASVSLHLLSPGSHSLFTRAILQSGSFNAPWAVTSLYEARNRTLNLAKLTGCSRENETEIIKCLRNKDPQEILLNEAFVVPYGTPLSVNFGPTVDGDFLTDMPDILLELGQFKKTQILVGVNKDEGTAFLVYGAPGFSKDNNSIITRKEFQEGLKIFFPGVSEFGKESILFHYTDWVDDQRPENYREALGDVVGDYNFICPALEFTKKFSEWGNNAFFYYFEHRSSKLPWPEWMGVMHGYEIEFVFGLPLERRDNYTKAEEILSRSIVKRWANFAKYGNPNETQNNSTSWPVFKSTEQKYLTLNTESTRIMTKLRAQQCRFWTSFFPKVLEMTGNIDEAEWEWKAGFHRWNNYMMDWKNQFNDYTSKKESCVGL

Consider `COc1ccc2nc3c(c(NCCCCNc4c(NCCCCNc5c6c(nc7ccc(OC)cc57)CCCC6)c(=O)c4=O)c2c1)CCCC3` [Compound 5c, Bis({4-[(7-methoxy-1,2,3,4-tetrahydroacridin-9-yl)amino]butyl}amino)cyclobut-3-ene-1,2-dione], for which the IC50 (in general, the concentration that gives 50% inhibition) in series [1] amounted to 4.5 µM; in series [2], 4.7 µM. The IC50 at 24 h in the series “in vitro” worked out at 190 µM.
For `Nc1c2c(nc3ccccc13)CCCC2` [THA, 9-amino-1,2,3,4-tetrahydroacridine, reference compound], in series [3], the Pe was 6 ×10⁻⁶ cm/s and the “CNS (+/−) predicted BBB permeation” value is listed as “CNS + (CNS +: high BBB permeation predicted with Pe (10^−6 cm·s^−1) > 4.0)”.
`O=c1c(NCCNc2c3c(nc4cc(Cl)ccc24)CCCC3)c(NCCNc2c3c(nc4cc(Cl)ccc24)CCCC3)c1=O` [Compound 4a, Bis({2-[(6-chloro-1,2,3,4-tetrahydroacridin-9-yl)amino]ethyl}amino)cyclobut-3-ene-1,2-dione]: in series [1], the half-maximal inhibitory concentration (IC50) is 0.0042 µM and the “SI (selectivity index for hAChE)” value is 36. Further, in series [2], the half-maximal inhibitory concentration (IC50) stood at 0.15 µM. For the same compound, the IC50 at 24 h in “in vitro” was above 128 µM.
As to `O=c1c(NCCCCCCCNc2c3c(nc4ccccc24)CCCC3)c(NCCCCCCCNc2c3c(nc4ccccc24)CCCC3)c1=O` [Compound 3f, Bis({7-[(1,2,3,4-tetrahydroacridin-9-yl)amino]heptyl}amino)cyclobut-3-ene-1,2-dione], in series [1], the IC50 was found to be 0.032 µM and the “SI (selectivity index for hAChE)” value amounted to 1. In addition, in series [2], the IC50 was 0.032 µM. Besides, in the series “in vitro”, the IC50 at 24 h turned out to be 23 µM.
For `O=c1c(NCCCCCCCCNc2c3c(nc4cc(Cl)ccc24)CCCC3)c(NCCCCCCCCNc2c3c(nc4cc(Cl)ccc24)CCCC3)c1=O` [Compound 4g, Bis({8-[(6-chloro-1,2,3,4-tetrahydroacridin-9-yl)amino]octyl}amino)cyclobut-3-ene-1,2-dione], in series [1], the concentration for half-maximal inhibition (IC50) worked out at 0.01 µM and the “SI (selectivity index for hAChE)” value is given as “˃10,000”. Further, in series [2], the IC50 is above 100 µM. Besides, the IC50 at 24 h in the series “in vitro” is above 64 µM.
On to `COc1ccc2c3c1O[C@H]1C[C@@H](O)C=C[C@@]31CCN(C)C2` [Galantamine, galantamine, reference compound], for which, in the series “in vitro”, the IC50 at 24 h amounted to 4200 µM.
As for `O=c1c(NCCCCNc2c3c(nc4ccccc24)CCCC3)c(NCCCCNc2c3c(nc4ccccc24)CCCC3)c1=O` [Compound 3c, Bis({4-[(1,2,3,4-tetrahydroacridin-9-yl)amino]butyl}amino)cyclobut-3-ene-1,2-dione], in series [1], the half-maximal inhibitory concentration (IC50) was determined as 0.0055 µM and the “SI (selectivity index for hAChE)” value came to 14. Moreover, the half-inhibitory concentration (IC50) in series [2] is 0.075 µM. Besides, the half-maximal inhibitory concentration (IC50) at 24 h in the series “in vitro” is 150 µM.
For `O=c1c(NCCCNc2c3c(nc4ccccc24)CCCC3)c(NCCCNc2c3c(nc4ccccc24)CCCC3)c1=O` [Compound 3b, Bis({3-[(1,2,3,4-tetrahydroacridin-9-yl)amino]propyl}amino)cyclobut-3-ene-1,2-dione], the IC50 in series [1] was found to be 0.0084 µM; in series [2] it was 0.055 µM. Moreover, in series [1], the “SI (selectivity index for hAChE)” value was 6.5. For the same compound, the IC50 at 24 h in the series “in vitro” is above 32 µM.
On the same counts, the results for `O=c1c(NCCCCCCCNc2c3c(nc4cc(Cl)ccc24)CCCC3)c(NCCCCCCCNc2c3c(nc4cc(Cl)ccc24)CCCC3)c1=O` [Compound 4f, Bis({7-[(6-chloro-1,2,3,4-tetrahydroacridin-9-yl)amino]heptyl}amino)cyclobut-3-ene-1,2-dione] are 0.016 µM, 0.45 µM, 28 and above 64 µM.
Turning to `NS(=O)(=O)c1cc2c(cc1Cl)N=CNS2(=O)=O` [chlorothiazide, reference compound], in series [3], the Pe was determined as 0.3 ×10⁻⁶ cm/s and the “CNS (+/−) predicted BBB permeation” value is reported as “CNS − (CNS −: low BBB permeation predicted with Pe (10^−6 cm·s^−1) < 2.0)”.
On to `Nc1c2c(nc3cc(Cl)ccc13)CCCC2` [Compound 6-Cl-THA, 6-chlorotacrine, reference compound], for which, in the series “in vitro”, the IC50 at 24 h was 43 µM.
On the same count and under the same terms, in the case of `COc1ccc2nc3c(c(N)c2c1)CCCC3` [Compound 7-MEOTA, 7-methoxytacrine, reference compound] it was 44 µM.
Consider `COc1ccc2nc3c(c(NCCCCCCCNc4c(NCCCCCCCNc5c6c(nc7ccc(OC)cc57)CCCC6)c(=O)c4=O)c2c1)CCCC3` [Compound 5f, Bis({7-[(7-methoxy-1,2,3,4-tetrahydroacridin-9-yl)amino]heptyl}amino)cyclobut-3-ene-1,2-dione], for which the IC50 in series [1] came out at 0.17 µM; in series [2], 1.3 µM. In series [1], the “SI (selectivity index for hAChE)” value is recorded as 7.6. In addition, in “in vitro”, the concentration for half-maximal inhibition (IC50) at 24 h amounted to 9 µM.
As to `CNC(=C[N+](=O)[O-])NCCSCc1ccc(CN(C)C)o1` [ranitidine, reference compound], in series [3], the Pe amounted to 0 ×10⁻⁶ cm/s and the “CNS (+/−) predicted BBB permeation” value is “CNS − (CNS −: low BBB permeation predicted with Pe (10^−6 cm·s^−1) < 2.0)”.
Take `CCN(C)C(=O)Oc1cccc([C@H](C)N(C)C)c1` [Rivastigmine, rivastigmine, reference compound]: the concentration for half-maximal inhibition (IC50) at 24 h in “in vitro” turned out to be 3400 µM.
As for `O=c1c(NCCCCCNc2c3c(nc4cc(Cl)ccc24)CCCC3)c(NCCCCCNc2c3c(nc4cc(Cl)ccc24)CCCC3)c1=O` [Compound 4d, Bis({5-[(6-chloro-1,2,3,4-tetrahydroacridin-9-yl)amino]pentyl}amino)cyclobut-3-ene-1,2-dione], in series [1], the half-inhibitory concentration (IC50) is 0.0082 µM and the “SI (selectivity index for hAChE)” value was found to be 38. Moreover, the IC50 in series [2] was 0.31 µM. Besides, the IC50 at 24 h in the series “in vitro” is above 64 µM.
Consider `CC(C)Cc1ccc(C(C)C(=O)O)cc1` (stereo not drawn) [ibuprofen, reference compound], for which the Pe in series [3] is 12 ×10⁻⁶ cm/s.
With `O=c1c(NCCCCCCCCNc2c3c(nc4ccccc24)CCCC3)c(NCCCCCCCCNc2c3c(nc4ccccc24)CCCC3)c1=O` [Compound 3g, Bis({8-[(1,2,3,4-tetrahydroacridin-9-yl)amino]octyl}amino)cyclobut-3-ene-1,2-dione], in series [1], the IC50 stood at 0.072 µM and the “SI (selectivity index for hAChE)” value was determined as 0.7. For the same compound, the half-maximal inhibitory concentration (IC50) in series [2] is 0.05 µM. Moreover, the IC50 at 24 h in the series “in vitro” came to 6.6 µM.
On the same counts, the results for `COc1ccc2nc3c(c(NCCCNc4c(NCCCNc5c6c(nc7ccc(OC)cc57)CCCC6)c(=O)c4=O)c2c1)CCCC3` [Compound 5b, Bis({3-[(7-methoxy-1,2,3,4-tetrahydroacridin-9-yl)amino]propyl}amino)cyclobut-3-ene-1,2-dione] are 1.1 µM, 8.1, 8.9 µM and above 64 µM.

The values above are taken from article PMC6723352, “Exploring Structure-Activity Relationship in Tacrine-Squaramide Derivatives as Potent Cholinesterase Inhibitors” (Biomolecules, 2019).
